Biological target: T1, DcVAO (vanillyl alcohol oxidase) (Diplodia corticola, UniProt A0A1J9QSC2)
T1 construct: gene BKCO1_4900020
Assay: specific activity of purified enzyme, xylenol orange H2O2 assay
Assay type: biochemical

T1 sequence (A0A1J9QSC2 entry or part of it): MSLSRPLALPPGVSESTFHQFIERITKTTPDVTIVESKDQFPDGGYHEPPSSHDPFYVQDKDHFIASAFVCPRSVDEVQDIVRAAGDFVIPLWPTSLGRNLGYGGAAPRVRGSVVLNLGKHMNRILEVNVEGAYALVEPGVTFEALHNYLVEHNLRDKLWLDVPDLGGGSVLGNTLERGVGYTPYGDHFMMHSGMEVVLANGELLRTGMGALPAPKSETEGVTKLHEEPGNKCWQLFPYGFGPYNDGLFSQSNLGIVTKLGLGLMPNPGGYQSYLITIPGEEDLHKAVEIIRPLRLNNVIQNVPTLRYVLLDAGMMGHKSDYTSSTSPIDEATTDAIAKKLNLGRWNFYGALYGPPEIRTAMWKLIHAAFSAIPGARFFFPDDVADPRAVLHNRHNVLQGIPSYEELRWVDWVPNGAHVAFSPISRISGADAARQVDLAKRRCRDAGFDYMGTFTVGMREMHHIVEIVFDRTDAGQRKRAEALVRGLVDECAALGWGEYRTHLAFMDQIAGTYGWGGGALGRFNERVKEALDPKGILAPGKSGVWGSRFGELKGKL

specific activity of purified enzyme, xylenol orange H2O2 assay: 6.3 ± 0.5 U mg^−1
SMILES: COc1cc(CO)cc(OC)c1O [compound 6, 4-(hydroxymethyl)-2,6-dimethoxyphenol]
